In test [1] the test system is IL-2 release from stimulated Jurkat cells. As to the kind of experiment: Human IL-2 Release Phenotypic Assay (Assay 3). Type of test: cell-based. Particulars: Jurkat cells (clone E6-1), 200 ng/mL PMA + 300 ng/mL ionomycin, IL-2 by ELISA. In short, it runs like this: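 IC50 values were fitted by 4-parameter non-linear regression to IL-2 release from Jurkat E6-1 cells. Those cells were stimulated for 48 h with PMA (200 ng/mL) plus ionomycin (300 ng/mL) after a 30-min compound pre-incubation at half-log doses in 0.5% DMSO. Cells had been plated at 50 000/well overnight at 37° C.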
(In general: An ELISA detects its analyte on a solid surface through an enzyme-linked reagent.)

Test [2] has as its target T1, FL hMALT1 enzyme (Homo sapiens, UniProt Q9UDY8).
T1 sequence (Q9UDY8 1-824): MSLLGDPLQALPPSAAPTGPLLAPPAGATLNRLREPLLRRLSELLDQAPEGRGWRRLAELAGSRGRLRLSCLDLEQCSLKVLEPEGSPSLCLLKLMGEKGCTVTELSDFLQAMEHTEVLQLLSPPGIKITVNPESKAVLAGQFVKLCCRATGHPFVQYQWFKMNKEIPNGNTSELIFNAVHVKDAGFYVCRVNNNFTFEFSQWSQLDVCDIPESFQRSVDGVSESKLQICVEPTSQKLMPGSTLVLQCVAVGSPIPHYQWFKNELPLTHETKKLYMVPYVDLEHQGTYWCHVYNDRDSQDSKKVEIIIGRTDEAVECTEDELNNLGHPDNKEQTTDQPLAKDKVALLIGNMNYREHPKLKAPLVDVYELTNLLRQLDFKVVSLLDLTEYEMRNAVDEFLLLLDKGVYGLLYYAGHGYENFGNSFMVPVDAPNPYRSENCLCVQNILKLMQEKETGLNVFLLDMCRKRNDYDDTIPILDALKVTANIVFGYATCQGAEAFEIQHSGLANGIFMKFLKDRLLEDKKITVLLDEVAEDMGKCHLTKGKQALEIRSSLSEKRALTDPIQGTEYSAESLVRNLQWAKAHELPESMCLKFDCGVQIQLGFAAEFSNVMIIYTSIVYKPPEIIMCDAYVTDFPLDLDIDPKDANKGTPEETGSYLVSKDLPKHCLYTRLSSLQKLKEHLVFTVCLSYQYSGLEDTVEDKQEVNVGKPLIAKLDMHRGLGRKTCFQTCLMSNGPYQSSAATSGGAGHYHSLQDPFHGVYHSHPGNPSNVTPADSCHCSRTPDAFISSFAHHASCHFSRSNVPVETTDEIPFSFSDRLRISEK
As to the kind of experiment: biochemical.

Test [3] addresses T2, MALT1-GS-Ub (6-His-hMALT-1 residues 339-715 fused to ubiquitin) (Homo sapiens, UniProt Q9UDY8).
Method: (§1) MALT1 protease activity was assessed in vitro by measuring the cleavage of a fluorogenic tetrapeptide substrate.
(§2) A protein (MALT1-GS-Ub) comprising 6-His-hMALT-1 (residues 339-715), fused to ubiquitin with an 8×GGS linker, was expressed in E. coli, and purified using chitin resin to remove contaminants followed by affinity chromatography purification and size-exclusion chromatography, according to standard protocols.
(§3) Briefly, MALT1-GS-Ub (300-600 nM) was incubated with substrate (Ac-LVSR-AMC, 100 μM) in reaction buffer comprising 50 mM HEPES (pH7.0), 25 mM KCl, 0.1% (v/v) CHAPS and 1 mM TCEP.
(§4) Test compounds dissolved in DMSO were dispensed into assay plates (384-well, black, shallow ProxiPlates). 7 μl enzyme solution was added and incubated at room temperature for 30 minutes to allow compound binding to occur. 2 μl substrate solution was then added and the fluorescence (excitation 360 nm, emission 460 nm) read every 15 minutes using a suitable plate reader. Final assay DMSO concentration was 1%. […] IC50 values were calculated using GraphPad Prism using a 4-parameter non-linear regression curve fit.
In test [4] the target is T1, FL hMALT1 enzyme.
The target of test [5] is T2, MALT1-GS-Ub (6-His-hMALT-1 residues 339-715 fused to ubiquitin). As to the kind of experiment: biochemical.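 Further: in vitro MALT1 protease assay: enzyme preincubated with compound 30 min at room temperature, then cleavage of fluorogenic Ac-LVSR-AMC substrate (100 µM) followed by fluorescence every 15 min.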
Method: as §1, §2, §3, §4

The structures appear in SMILES notation. Read-outs that look alike come from different tables or passages of the source.

What is called IC50 is the point on the concentration scale where inhibition reaches its midpoint.

T2 sequence (Q9UDY8 with tags, fused parts or gaps limits assumed): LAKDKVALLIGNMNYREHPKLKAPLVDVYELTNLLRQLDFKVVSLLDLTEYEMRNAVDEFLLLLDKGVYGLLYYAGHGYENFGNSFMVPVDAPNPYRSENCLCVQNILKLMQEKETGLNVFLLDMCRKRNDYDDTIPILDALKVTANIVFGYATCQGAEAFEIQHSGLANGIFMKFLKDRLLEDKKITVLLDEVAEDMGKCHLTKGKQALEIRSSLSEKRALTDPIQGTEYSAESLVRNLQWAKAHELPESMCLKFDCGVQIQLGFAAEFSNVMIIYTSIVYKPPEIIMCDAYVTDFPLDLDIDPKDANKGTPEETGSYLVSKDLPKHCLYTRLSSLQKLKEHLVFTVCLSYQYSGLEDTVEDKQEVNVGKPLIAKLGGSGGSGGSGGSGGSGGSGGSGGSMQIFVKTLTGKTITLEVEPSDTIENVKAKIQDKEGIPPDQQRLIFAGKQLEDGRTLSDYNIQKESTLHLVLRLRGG

With `CN(C(=O)C1CCS(=O)(=O)CC1)[C@@H](c1ccc(NC2Cc3ccccc3C2(C)C)cc1)C(F)(F)F` (single isomer, unassigned) [Example 2], the IC50 in test [1] (48 hours) was found to be 620 nM; against FL hMALT1 enzyme [2] it was 50 nM; in test [3] it was 140 nM.

For `CC(=O)NC12CC(C(=O)N(C)[C@@H](c3ccc(N[C@H]4Cc5ccccc5C4(C)C)cn3)C(F)(F)F)(C1)C2` [Example 179, 3-Acetamido-N—((S)-1-(5-(((S)-1,1-dimethyl-2,3-dihydro-1H-inden-2-yl)amino)pyridin-2-yl)-2,2,2-trifluoroethyl)-N-methylbicyclo[1.1.1]pentane-1-carboxamide], the IC50 in test [1] (Homo sapiens, Jurkat, 48 h) came to 470 nM; against FL hMALT1 enzyme [4], 88 nM.

On to `CC1c2ccccc2CC1Nc1ccc([C@H](N(C)C(=O)C2CCS(=O)(=O)CC2)C(F)(F)F)cc1` (stereo in doubt) [Example 9, N-Methyl-N—((S)-2,2,2-trifluoro-1-(4-(((1,2-trans)-1-methyl-2,3-dihydro-1H-inden-2-yl)amino)phenyl)ethyl)tetrahydro-2H-thiopyran-4-carboxamide 1,1-dioxide], for which the IC50 in test [1] (48 hours) was 210 nM; against FL hMALT1 enzyme [4], 6 nM; in test [3], 240 nM.

In the case of `CC(=O)NCCC(=O)N(C)[C@@H](c1ccc(NC2Cc3ccccc3C2(C)C)cc1)C(F)(F)F` (single isomer, unassigned) [Example 25], the IC50 in test [1] (48 hours) came to 61 nM; against FL hMALT1 enzyme [2], 27 nM; in test [3], 160 nM.

As for `COC1c2ccccc2CC1Nc1ccc([C@H](N(C)C(=O)C2CCS(=O)(=O)CC2)C(F)(F)F)cc1` (stereo in doubt) [Example 11, N-Methyl-N—((S)-2,2,2-trifluoro-1-(4-(((1,2-trans)-1-methoxy-2,3-dihydro-1H-inden-2-yl)amino)phenyl)ethyl)tetrahydro-2H-thiopyran-4-carboxamide 1,1-dioxide], the IC50 was above 10000 nM in test [1] (48 hours), 1200 nM against FL hMALT1 enzyme [4] and 3890 nM in test [3].

`CN(C(=O)C1CCNCC1)[C@@H](c1ccc(NC2Cc3ccccc3C2)cc1)C(F)(F)F` (single isomer, unassigned) [Example 70]: the IC50 in test [1] (Homo sapiens, Jurkat, 48 h) is 3500 nM; in test [5] it was 430 nM; against FL hMALT1 enzyme [2] it was 810 nM.

Take `CN(C(=O)C1CCS(=O)(=O)CC1)[C@@H](c1ccc(NC2Cc3ccccc3C2(C)C)nc1)C(F)(F)F` (single isomer, unassigned) [Example 37]: the IC50 in test [1] (48 hours) was 500 nM; in test [5], 270 nM; against FL hMALT1 enzyme [4], 39 nM.

As for `CN([C@@H](c1ccc(NC2Cc3ccccc3C2(C)C)cc1)C(F)(F)F)S(=O)(=O)C1CC1` (single isomer, unassigned) [Example 79], the IC50 in test [1] (Homo sapiens, Jurkat, 48 h) amounted to 4310 nM; in test [5], 610 nM; against FL hMALT1 enzyme [2] it was 730 nM.

On to `CN(C(=O)C1CCOCC1)[C@@H](c1ccc(NC2Cc3ccccc3C2(C)C)cc1)C(F)(F)F` (single isomer, unassigned) [Example 18], for which the IC50 was 520 nM in test [1] (48 hours), 330 nM in test [5] and 120 nM on FL hMALT1 enzyme [2].

With `CN(C(=O)N1CCC(O)CC1)[C@@H](c1ccc(NC2Cc3ccccc3C2(C)C)cc1)C(F)(F)F` (single isomer, unassigned) [Example 23], the IC50 was determined as 1080 nM in test [1] (48 hours), 390 nM in test [5] and 330 nM against FL hMALT1 enzyme [2].

Turning to `CN(C(=O)C1CCS(=O)(=O)CC1)[C@@H](c1ccc(NC2Cc3ccccc3C2(C)C)nc1)C(F)(F)F` (single isomer, unassigned) [Example 36], the figures for the IC50 (in test [1] (48 hours); in test [5]; against FL hMALT1 enzyme [2]) were 1160 nM, 380 nM and 39 nM, respectively.

As to `CN(C(=O)CN1CCCC1=O)[C@@H](c1ccc(NC2Cc3ccccc3C2(C)C)cc1)C(F)(F)F` (single isomer, unassigned) [Example 46], the IC50 was determined as 440 nM in test [1] (48 hours), 250 nM in test [5] and 66 nM against FL hMALT1 enzyme [2].

For the molecule `CN(C(=O)c1cnco1)[C@@H](c1ccc(NC2Cc3ccccc3C2(C)C)cc1)C(F)(F)F` (single isomer, unassigned) [Example 4], the 50% inhibitory concentration (IC50) in test [1] (48 hours) is 69 nM; at FL hMALT1 enzyme [2], 34 nM; in test [3] it was 140 nM.

With `CC1(C)c2ccccc2CC1Nc1ccc([C@H](NC(=O)C2CCS(=O)(=O)CC2)C(F)(F)F)cc1` (single isomer, unassigned) [Example 81], the IC50 turned out to be 3860 nM in test [1] (Homo sapiens, Jurkat, 48 h); 1440 nM in test [5]; 800 nM on FL hMALT1 enzyme [2].

Regarding `CC(=O)N1CC(C(=O)N(C)[C@@H](c2ccc(NC3Cc4ccccc4C3(C)C)cc2)C(F)(F)F)C1` (single isomer, unassigned) [Example 6], the IC50 worked out at 320 nM in test [1] (48 hours), 150 nM in test [5] and 16 nM against FL hMALT1 enzyme [2].

As for `CNS(=O)(=O)CCCC(=O)N(C)[C@@H](c1ccc(NC2Cc3ccccc3C2(C)C)cc1)C(F)(F)F` (single isomer, unassigned) [Example 64], the IC50 in test [1] (48 hours) turned out to be 290 nM; in test [5], 150 nM; on FL hMALT1 enzyme [2] it was 12 nM.

Source of the values: patent US20260184687A1, “DIHYDROINDENE DERIVATIVES AS MALT1 INHIBITORS” (C4X Discovery Limited, priority 2022, published 2026).
